Data on 22 compounds can be found in patent US10829473B2, “Modulators of the cystic fibrosis transmembrane conductance regulator protein and methods of use” (AbbVie Overseas S.Á.R.L., priority 2017, dated 2020).

The target in this test is T1, F508delCFTR (Homo sapiens, UniProt P13569, DEL508-508).
T1 construct: expressed in transfected cells; host or cells: CFBE41o- human lung derived epithelial cells (CFBE41o-F508delCFTR-HRP), doxycycline-inducible
Kind of test: Cell Surface Expression-Horse Radish Peroxidase (CSE-HRP) Assay.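 For EC50 (with co-corrector): co-corrector chromenyl benzoic acid corrector at 2 or 3 µM.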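 For Maximum % activity (without co-corrector): % of on-plate positive control chromenyl benzoic acid corrector at 2 or 3 µM.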 Format: cell-based. To be noted: for Maximum % activity (with co-corrector) / Emax: maximum at any tested concentration; for Emax: read-out: Maximum % activity (without co-corrector). A digest of the protocol:
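Corrector compounds were given as 8-point 3-fold series from 20 or 30 μM, with or without a 2 μM co-corrector, for 18-24 h at 33 °C. Surface HRP was read by luminol luminescence as % of positive control; variable-Hill-slope sigmoidal fitting gave EC50 from triplicate plates.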

[1] abbreviates: test compound alone, without co-corrector, read-out: EC50 (without co-corrector).
Where [2] appears, read: with co-corrector, read-out: EC50 (with co-corrector).

Structures are written as SMILES. Where two headings read alike, the source gives them in different places.

As usually defined, the EC50 is the midpoint of the concentration-response curve.

T1 sequence (P13569 with tags, fused parts or gaps DEL508-508): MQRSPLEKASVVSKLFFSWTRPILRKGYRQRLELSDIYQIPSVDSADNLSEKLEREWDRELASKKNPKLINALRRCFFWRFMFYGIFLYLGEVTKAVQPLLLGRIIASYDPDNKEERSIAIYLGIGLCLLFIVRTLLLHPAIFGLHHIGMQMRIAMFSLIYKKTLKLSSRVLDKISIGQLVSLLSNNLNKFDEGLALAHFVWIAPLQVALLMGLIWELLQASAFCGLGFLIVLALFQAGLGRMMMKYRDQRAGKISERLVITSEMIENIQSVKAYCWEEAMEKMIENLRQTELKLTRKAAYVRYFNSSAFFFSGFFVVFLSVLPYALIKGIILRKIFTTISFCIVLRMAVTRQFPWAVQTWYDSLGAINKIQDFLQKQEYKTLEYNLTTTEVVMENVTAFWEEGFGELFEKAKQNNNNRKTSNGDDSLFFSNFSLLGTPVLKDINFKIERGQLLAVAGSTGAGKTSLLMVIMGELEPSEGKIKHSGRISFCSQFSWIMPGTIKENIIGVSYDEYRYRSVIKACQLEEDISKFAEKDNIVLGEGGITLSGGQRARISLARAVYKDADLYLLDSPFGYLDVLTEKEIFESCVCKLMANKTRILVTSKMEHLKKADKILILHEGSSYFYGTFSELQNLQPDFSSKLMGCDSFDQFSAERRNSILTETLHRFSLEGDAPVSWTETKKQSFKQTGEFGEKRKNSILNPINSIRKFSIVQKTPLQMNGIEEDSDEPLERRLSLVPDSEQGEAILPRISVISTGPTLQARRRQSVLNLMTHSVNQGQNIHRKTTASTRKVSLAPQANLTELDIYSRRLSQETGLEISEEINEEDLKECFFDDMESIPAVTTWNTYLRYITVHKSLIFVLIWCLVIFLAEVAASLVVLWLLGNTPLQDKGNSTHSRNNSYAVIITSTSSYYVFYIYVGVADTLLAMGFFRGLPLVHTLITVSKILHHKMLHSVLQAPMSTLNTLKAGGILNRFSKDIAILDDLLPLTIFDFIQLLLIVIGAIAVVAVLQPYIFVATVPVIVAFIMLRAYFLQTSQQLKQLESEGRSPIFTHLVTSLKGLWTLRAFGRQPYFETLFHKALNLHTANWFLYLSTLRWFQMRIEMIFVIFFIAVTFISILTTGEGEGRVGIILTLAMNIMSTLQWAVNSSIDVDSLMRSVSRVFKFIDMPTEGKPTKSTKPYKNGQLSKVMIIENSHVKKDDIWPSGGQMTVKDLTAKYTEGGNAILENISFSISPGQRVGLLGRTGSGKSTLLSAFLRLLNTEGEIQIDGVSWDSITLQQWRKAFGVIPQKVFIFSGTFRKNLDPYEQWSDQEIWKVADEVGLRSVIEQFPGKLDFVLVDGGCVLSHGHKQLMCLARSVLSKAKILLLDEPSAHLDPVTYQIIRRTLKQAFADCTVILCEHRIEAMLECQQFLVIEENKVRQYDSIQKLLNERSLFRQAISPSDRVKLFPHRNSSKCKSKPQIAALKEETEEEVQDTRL

For the compound `Cc1ccc(OC2COC2)c(C2(C(=O)NS(=O)(=O)c3cccc4nc(C)ccc34)CC2)c1` [Example I-106, 1-{5-methyl-2-[(oxetan-3-yl)oxy]phenyl}-N-(2-methylquinoline-5-sulfonyl)cyclopropane-1-carboxamide], the EC50 under setting [1] lay in the range of 3 to 10 µM and the EC50 under setting [2] is under 3 µM. The “Maximum % activity (with co-corrector)” value (with co-corrector) is “+++ (≥350)”. Besides, the Emax (without co-corrector) was over 150%.

Regarding `COC[C@@H](C)Oc1ccc(C)cc1C1(C(=O)NS(=O)(=O)c2cccc3nc(C)ccc23)CC1` [Example I-107, 1-(2-{[(2R)-1-methoxypropan-2-yl]oxy}-5-methylphenyl)-N-(2-methylquinoline-5-sulfonyl)cyclopropane-1-carboxamide], the EC50 runs as follows: under setting [1], under 3 µM; under setting [2], under 3 µM. The “Maximum % activity (with co-corrector)” value (with co-corrector) is listed as “+++ (≥350)”. The Emax (without co-corrector) is over 150%.

Regarding `CC(C)COc1ccc(N(C)C)c(C2(C(=O)NS(=O)(=O)c3cccc4ncccc34)CC2)n1` [Example I-108, 1-[3-(dimethylamino)-6-(2-methylpropoxy)pyridin-2-yl]-N-(quinoline-5-sulfonyl)cyclopropane-1-carboxamide], the EC50 reads like this: under setting [1], under 3 µM; under setting [2], under 3 µM. For the setting “with co-corrector”, the “Maximum % activity (with co-corrector)” value was “+++ (≥350)”. Moreover, the Emax (without co-corrector) was over 150%.

On to `Cc1ccc2c(S(=O)(=O)NC(=O)C3(c4cc(N(C)C)cnc4OCC(C)C)CC3)cccc2n1` [Example I-109, 1-[5-(dimethylamino)-2-(2-methylpropoxy)pyridin-3-yl]-N-(2-methylquinoline-5-sulfonyl)cyclopropane-1-carboxamide], for which the EC50 by setting is: under setting [1], under 3 µM; under setting [2], under 3 µM. For the same compound, where the note is “with co-corrector”, the “Maximum % activity (with co-corrector)” value was “+++ (≥350)”. Further, the Emax (without co-corrector) was over 150%.

Regarding `COCC(C)(C)c1ccc(OC)c(C2(C(=O)NS(=O)(=O)c3cccc4ncccc34)CC2)c1` [Example I-110, 1-[2-methoxy-5-(1-methoxy-2-methylpropan-2-yl)phenyl]-N-(quinoline-5-sulfonyl)cyclopropane-1-carboxamide], the EC50 runs as follows: under setting [1], under 3 µM; under setting [2], under 3 µM. Where the note is “with co-corrector”, the “Maximum % activity (with co-corrector)” value is on record as “+++ (≥350)”. Besides, the Emax (without co-corrector) was over 150%.

As for `CCc1ccc(O[C@H](C)COC)c(C2(C(=O)NS(=O)(=O)c3cccc4ncccc34)CC2)c1` [Example I-111, 1-(5-ethyl-2-{[(2R)-1-methoxypropan-2-yl]oxy}phenyl)-N-(quinoline-5-sulfonyl)cyclopropane-1-carboxamide], the EC50 is, setting by setting: under setting [1], under 3 µM; under setting [2], under 3 µM. For the same compound, the “Maximum % activity (with co-corrector)” value (with co-corrector) is “+++ (≥350)”. Besides, under “without co-corrector”, the Emax was over 150%.

For `CCc1ccc(O[C@H](C)COC)c(C2(C(=O)NS(=O)(=O)c3cccc4nc(C)ccc34)CC2)c1` [Example I-112, 1-(5-ethyl-2-{[(2R)-1-methoxypropan-2-yl]oxy}phenyl)-N-(2-methylquinoline-5-sulfonyl)cyclopropane-1-carboxamide], the EC50 under setting [1] is under 3 µM and the half-maximal effective concentration (EC50) under setting [2] is under 3 µM. Also, the “Maximum % activity (with co-corrector)” value (with co-corrector) is on record as “+++ (≥350)”. Also, the Emax (without co-corrector) is over 150%.

In the case of `CO[C@@H](C)COc1ccc(C)cc1C1(C(=O)NS(=O)(=O)c2cccc3ncccc23)CC1` [Example I-113, 1-{2-[(2S)-2-methoxypropoxy]-5-methylphenyl}-N-(quinoline-5-sulfonyl)cyclopropane-1-carboxamide], the 50% effective concentration (EC50) reads like this: under setting [1], under 3 µM; under setting [2], under 3 µM. Besides, the “Maximum % activity (with co-corrector)” value (with co-corrector) is given as “+++ (≥350)”. The Emax (without co-corrector) was over 150%.

`CO[C@@H](C)COc1ccc(C)cc1C1(C(=O)NS(=O)(=O)c2cccc3nc(C)ccc23)CC1` [Example I-114, 1-{2-[(2S)-2-methoxypropoxy]-5-methylphenyl}-N-(2-methylquinoline-5-sulfonyl)cyclopropane-1-carboxamide]: the EC50 under setting [1] is under 3 µM and the EC50 under setting [2] was under 3 µM. Moreover, where the note is “with co-corrector”, the “Maximum % activity (with co-corrector)” value was “+++ (≥350)”. The Emax (without co-corrector) was over 150%.

`CO[C@H](C)COc1ccc(C)cc1C1(C(=O)NS(=O)(=O)c2cccc3ncccc23)CC1` [Example I-115, 1-{2-[(2R)-2-methoxypropoxy]-5-methylphenyl}-N-(quinoline-5-sulfonyl)cyclopropane-1-carboxamide]: the EC50 was under 3 µM under setting [1] and under 3 µM under setting [2]. The “Maximum % activity (with co-corrector)” value (with co-corrector) is recorded as “+++ (≥350)”. For the same compound, the Emax (without co-corrector) was over 150%.

For `CO[C@H](C)COc1ccc(C)cc1C1(C(=O)NS(=O)(=O)c2cccc3nc(C)ccc23)CC1` [Example I-116, 1-{2-[(2R)-2-methoxypropoxy]-5-methylphenyl}-N-(2-methylquinoline-5-sulfonyl)cyclopropane-1-carboxamide], the EC50 reads like this: under setting [1], under 3 µM; under setting [2], under 3 µM. In addition, the “Maximum % activity (with co-corrector)” value (with co-corrector) is on record as “+++ (≥350)”. Besides, the Emax (without co-corrector) was over 150%.

`CCc1ccc(O[C@H]2CCOC2)c(C2(C(=O)NS(=O)(=O)c3cccc4ncccc34)CC2)c1` [Example I-117, 1-(5-ethyl-2-{[(3S)-oxolan-3-yl]oxy}phenyl)-N-(quinoline-5-sulfonyl)cyclopropane-1-carboxamide]: the concentration giving a half-maximal response (EC50) reads like this: under setting [1], under 3 µM; under setting [2], under 3 µM. Also, the “Maximum % activity (with co-corrector)” value (with co-corrector) is “+++ (≥350)”. The Emax (without co-corrector) was over 150%.

On to `CCc1ccc(O[C@@H]2CCOC2)c(C2(C(=O)NS(=O)(=O)c3cccc4ncccc34)CC2)c1` [Example I-118, 1-(5-ethyl-2-{[(3R)-oxolan-3-yl]oxy}phenyl)-N-(quinoline-5-sulfonyl)cyclopropane-1-carboxamide], for which the EC50 was under 3 µM under setting [1] and under 3 µM under setting [2]. Further, the “Maximum % activity (with co-corrector)” value (with co-corrector) is “+++ (≥350)”. Besides, for the setting “without co-corrector”, the Emax is over 150%.

Consider `CCc1ccc(O[C@@H]2CCOC2)c(C2(C(=O)NS(=O)(=O)c3cccc4nc(C)ccc34)CC2)c1` [Example I-119, 1-(5-ethyl-2-{[(3R)-oxolan-3-yl]oxy}phenyl)-N-(2-methylquinoline-5-sulfonyl)cyclopropane-1-carboxamide], for which the EC50 is, setting by setting: under setting [1], under 3 µM; under setting [2], under 3 µM. Also, the “Maximum % activity (with co-corrector)” value (with co-corrector) is “+++ (≥350)”. The Emax (without co-corrector) is over 150%.

Consider `Cc1ccc(O[C@@H]2CCOC2)c(C2(C(=O)NS(=O)(=O)c3cccc4ncccc34)CC2)c1` [Example I-122, 1-(5-methyl-2-{[(3R)-oxolan-3-yl]oxy}phenyl)-N-(quinoline-5-sulfonyl)cyclopropane-1-carboxamide], for which the EC50 by setting is: under setting [1], under 3 µM; under setting [2], under 3 µM. Moreover, the “Maximum % activity (with co-corrector)” value (with co-corrector) is reported as “+++ (≥350)”. Also, the Emax (without co-corrector) was over 150%.

On to `Cc1ccc(O[C@@H]2CCOC2)c(C2(C(=O)NS(=O)(=O)c3cccc4nc(C)ccc34)CC2)c1` [Example I-123, 1-(5-methyl-2-{[(3R)-oxolan-3-yl]oxy}phenyl)-N-(2-methylquinoline-5-sulfonyl)cyclopropane-1-carboxamide], for which the EC50 is under 3 µM under setting [1] and under 3 µM under setting [2]. The “Maximum % activity (with co-corrector)” value (with co-corrector) is recorded as “+++ (≥350)”. In addition, the Emax (without co-corrector) was over 150%.

For the compound `Cc1ccc(O[C@H]2CCOC2)c(C2(C(=O)NS(=O)(=O)c3cccc4nc(C)ccc34)CC2)c1` [Example I-124, 1-(5-methyl-2-{[(3S)-oxolan-3-yl]oxy}phenyl)-N-(2-methylquinoline-5-sulfonyl)cyclopropane-1-carboxamide], the EC50 was under 3 µM under setting [1] and under 3 µM under setting [2]. The “Maximum % activity (with co-corrector)” value (with co-corrector) was “+++ (≥350)”. The Emax (without co-corrector) is over 150%.

On to `O=C(NS(=O)(=O)c1ccccc1)C1(c2ccc(Cl)cc2Cl)CC1` [Example III-3, N-(benzenesulfonyl)-1-(2,4-dichlorophenyl)cyclopropane-1-carboxamide], for which the EC50 is, setting by setting: under setting [1], 3 to 10 µM; under setting [2], 3 to 10 µM. Further, the “Maximum % activity (with co-corrector)” value (with co-corrector) is “+++ (≥350)”. The Emax (without co-corrector) was 50 to 150%.

Turning to `COc1ccc(C2(C(=O)NS(=O)(=O)c3ccccc3)CC2)cc1` [Example III-5, N-(benzenesulfonyl)-1-(4-methoxyphenyl)cyclopropane-1-carboxamide], the EC50 was over 10 µM under setting [1] and over 10 µM under setting [2]. Moreover, the “Maximum % activity (with co-corrector)” value (with co-corrector) was “+ (<150)”. In addition, under “without co-corrector”, the Emax is under 50%.

For the compound `O=C(NS(=O)(=O)c1ccccc1)C1(c2ccccc2)CC1` [Example III-6, N-(benzenesulfonyl)-1-phenylcyclopropane-1-carboxamide], the EC50 is over 10 µM under setting [1] and 3 to 10 µM under setting [2]. Besides, the “Maximum % activity (with co-corrector)” value (with co-corrector) was “++ (≥150 and <350)”. Moreover, the Emax (without co-corrector) was under 50%.

As for `O=C(NS(=O)(=O)c1ccccc1)C1(c2ccc(Cl)cc2)CCC1` [Example III-7, N-(benzenesulfonyl)-1-(4-chlorophenyl)cyclobutane-1-carboxamide], the EC50 is over 10 µM under setting [1] and 3 to 10 µM under setting [2]. Further, the “Maximum % activity (with co-corrector)” value (with co-corrector) was “++ (≥150 and <350)”. In addition, under “without co-corrector”, the Emax was under 50%.

Consider `O=C(NS(=O)(=O)c1ccc2c(c1)CCC2)C1(c2ccc(Cl)cc2Cl)CC1` [Example III-8, 1-(2,4-dichlorophenyl)-N-(2,3-dihydro-1H-indene-5-sulfonyl)cyclopropane-1-carboxamide], for which the EC50 runs as follows: under setting [1], over 10 µM; under setting [2], 3 to 10 µM. Also, the “Maximum % activity (with co-corrector)” value (with co-corrector) was “++ (≥150 and <350)”. Moreover, the Emax (without co-corrector) is under 50%.
